The results in this text go back to US7419950B2, “Methods of inhibiting ectopic calcification” (University of Washington, priority 1998, dated 2008).

Data set [1] has as its system human vascular smooth muscle cells (HSMC). Briefly: Calcium deposition by human vascular smooth muscle cells in high-phosphate calcification medium. Type of data set: cell-based. The note with it: for calcium deposition into HSMC matrix (in words): high-phosphate calcification medium. As for the experimental part:
(§1) Calcification was assessed by a modification of the method described by Jono et al., Arterioscler. Thromb. Vasc. Biol. 17:1135-1142 (1997) which is incorporated herein by reference. Briefly, the cultures were decalcified with 0.6 N HCl for 24 hours. The calcium content of the HCl supernatant was determined calorimetrically by the o-cresolphthalein complexone method (Calcium Kit, Sigma). After decalcification, the cultures were washed with phosphate-buffered saline (PBS) and solubilized with 0.1 N NaOH/0.1% sodium dodecyl sulfate(SDS). Total protein content was measured with a Bio-Rad Protein Assay Kit (Bio-Rad). The calcium content of the cell layer was normalized to protein content. Phosphorus and calcium concentrations in the culture medium were measured by the phosphomolybdate complex method (Phosphorus Kit, Sigma) and the o-cresolphthalein complexone method (Calcium Kit, Sigma), respectively. Values were expressed as the mean +/− SEM, n=3.
HSMC were routinely subcultured in growth medium. At confluence, cells were switched to calcification medium (DMEM containing 15% FBS and 1 mM sodium pyruvate in the presence of 2 mM inorganic phosphate supplemented with 100 U/ml penicillin and 100 μg/ml of streptomycin) for up to 14 days. The medium was replaced with fresh medium every 2 days. For time-course experiments, the first day of culture in calcification medium was defined as day 0. Calcium deposition was quantified and assessed histochemically and cytochemically as described above in Example I.
Osteopontin proteins and functional fragments were assayed for their ability to inhibit ectopic calcification using the HSMC calcification system described in Example III. The osteopontin proteins include full-length human recombinant osteopontin as well as recombinant N-terminal and C-terminal human osteopontin fragments similar to those that would be formed following thrombin cleavage of the native protein, as described by Smith et al., supra (1996). Two N-terminal fragments were used, 10N and 30N, which refer to two differ splice variants of osteopontin. The 30N splice variant contains an additional 14 amino acids, […] (SEQ ID NO: 7), which correspond to exon 5 (amino acids 59-72). The ION fragment contains amino acids 17-58 and 73-160 of native osteopontin, whereas the 30N fragment contains amino acids 17-169. The 10C fragment contains the C-terminal domain of osteopontin, amino acids 170-317.
Recombinant osteopontin and its functional fragments were assayed for their ability to inhibit ectopic calcification of human smooth muscle cells (HSMC) either prior to or following phosphorylation by casein kinase II. The amount of phosphate incorporated into osteopontin (OPN) and its fragments achieved by casein kinase II phosphorylation is shown in FIG. 5b.

Data set [2] concerns bovine aortic smooth muscle cells (BASMC). Briefly: Calcium deposition by cultured bovine aortic smooth muscle cells in calcification medium. To be noted: for inhibition of calcium deposition (in words): equimolar concentrations as were effective for osteopontin. Type of data set: cell-based. On the procedure: In order to examine calcification by cultured BASMC smooth muscle cells, calcification was induced by the method described by Shioi et al., Arterioscler Thromb Vasc Biol., 15:2003-2009 (1995), which is incorporated herein by reference. Briefly, BASMC were cultured in growth medium for 4 days, and then switched to calcification medium (DMEM (high glucose, 4.5 g/L) containing 15% FBS and 10 mM sodium pyruvate in the presence of 10 mM of β-glycerophosphate (unless otherwise stated), 10^-7 M insulin, and 50 μg/ml of ascorbic acid, supplemented with 100 U/ml of penicillin and 100 μg/ml of streptomycin) for 10 days. The medium was replaced with fresh medium twice a week. In the time course experiments, the beginning day of culture in calcification medium was defined as day 0.
as §1
To examine the effect of osteopontin on BASMC-mediated calcification in vitro, soluble osteopontin or vehicle alone (0.1 mM sodium citrate) was added to the calcifying BASMC cultures. […] In contrast, vehicle alone had no effect (FIG. 2a).
To exclude the possibility that contaminants in the osteopontin preparation were responsible for the observed inhibitory effect, immunodepletion experiments were performed. Medium containing 10 μg/ml osteopontin was mixed with […] anti-osteopontin (OP-199) or normal goat IgG, prepared by the method described by Liaw et al., supra (1994) and incubated for 1 hr at room temperature. 250 mg protein-A-sepharose was added and incubated for 1 hr at room temperature. The antibody-protein A sepharose complexes were removed by centrifugation, and the remaining supernatant diluted twenty-fold for use in the calcification studies. Unpaired Student's t test was employed to compare groups and a probability value (p) value less than 0.05 was considered significant.

Another data set concerns the target T1, alkaline phosphatase (Bos taurus, UniProt P09487).
T1 construct: cellular proteins were solubilized with 1% Triton X-100 in 0.9% NaCl and centrifuged; endogenous in cells; host or cells: BASMC (bovine aortic smooth muscle cells), detergent lysate supernatant
T1 sequence (P09487 18-499): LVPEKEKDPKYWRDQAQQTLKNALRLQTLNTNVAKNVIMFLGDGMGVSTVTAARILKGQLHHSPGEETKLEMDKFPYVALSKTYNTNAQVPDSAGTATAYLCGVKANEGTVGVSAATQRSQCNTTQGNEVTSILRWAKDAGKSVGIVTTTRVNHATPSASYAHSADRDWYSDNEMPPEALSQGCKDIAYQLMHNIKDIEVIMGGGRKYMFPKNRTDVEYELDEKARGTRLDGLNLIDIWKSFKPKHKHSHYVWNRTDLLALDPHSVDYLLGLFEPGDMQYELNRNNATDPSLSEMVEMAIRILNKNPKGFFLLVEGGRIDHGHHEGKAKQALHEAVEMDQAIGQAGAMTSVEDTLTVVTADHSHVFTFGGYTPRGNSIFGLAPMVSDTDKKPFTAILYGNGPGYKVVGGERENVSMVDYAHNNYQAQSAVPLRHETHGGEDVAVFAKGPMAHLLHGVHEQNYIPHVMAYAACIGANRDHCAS
As to the kind of experiment: Cellular alkaline phosphatase activity of BASMC cultures. It counts as cell-based, bovine. To be noted: cells in calcification medium. On the procedure: For cellular alkaline phosphatase activity measurements, cells were cultured in calcification medium in the presence of various concentrations of osteopontin. Cells were washed three times with PBS and cellular proteins were solubilized with 1% Triton X-100 in 0.9% NaCl and centrifuged. Supernatants were assayed for alkaline phosphatase activity by the method described by Bessey et al., J. Biol. Chem. 164:321-329 (1946), which is incorporated herein by reference. One unit was defined as the activity producing 1 nmol of p-nitrophenol within 1 minute. Protein concentrations were determined with a Bio-Rad protein assay kit (Bio-Rad). The data were normalized to the protein content of the cell layer.

The subject of the next data set is BASMC. As to the kind of experiment: Phosphorus concentration in BASMC culture medium. Type of data set: cell-based, bovine. The note with it: BASMC calcification medium. On the procedure:
as §1

For the compound `O=P(O)(O)O` [inorganic phosphate], the calcium deposition in data set [1] (2 mM inorganic phosphate, day 9, mean +/-SEM) is 210.3+/−2.4 μg/mg protein.
Turning to `c1ccc([C@H]2CN3CCSC3=N2)cc1` [levamisole, reference compound], the IC50 in data set [2] (Bos taurus, BASMC cultures in calcification medium, read-out: half-maximal inhibition of calcium deposition) came to 50 µM. Besides, in data set [2] (levamisole versus vehicle), the “calcium deposition in BASMC cultures (in words)” value is reported as “dose-dependently inhibited”. Further, the “alkaline phosphatase activity of BASMC cultures (in words)” value at alkaline phosphatase is listed as “dose-dependently inhibited”. In the data set on BASMC, the “phosphorus concentration of the culture medium (in words)” value is given as “reduced”.
`O=P(O)(O)OC(CO)CO` [β-glycerophosphate]: the EC50 in data set [2] (BASMC, initial concentration of β-glycerophosphate in medium, read-out: concentration giving half-maximal calcium deposition) was around 4000 µM.
Turning to “OPN: full-length human recombinant osteopontin prepared as a His-tagged protein; tested with or without casein kinase II phosphorylation”, the “inhibition of ectopic calcification, dose relation (in words)” value in data set [1] (0.1 μg/ml to 5.0 μg/ml) was “dose-dependent”. Moreover, the “time to significantly reduced calcium deposition” value in data set [1] (after addition to HSMC) is at most 60 min. Besides, the inhibition of calcification entry in data set [1] (by 90 minutes following addition) was “approximately 50%”. The figures for the “calcium deposition into HSMC matrix (in words)” value in data set [1] (non-phosphorylated forms) and in data set [1] (protein phosphorylated by casein kinase II) were “do not significantly affect” and “reduced to basal levels”, respectively. In addition, the “HSMC calcification (in words)” value in data set [1] (phosphorylated by casein kinase II, 15 nM) is “able to inhibit HSMC calcification”; in data set [1] (phosphorylated protein dephosphorylated with alkaline phosphatase (ALP)), “reverses this inhibitory ability”.
“fibronectin: bovine fibronectin (TELIOS), RGD-containing extracellular matrix molecule [reference compound]”: in data set [2], the “inhibition of calcium deposition (in words)” value is “unable to inhibit calcium deposition”.
In the case of “osteopontin: Rat osteopontin purified from the conditioned medium of rat neonatal smooth muscle cell cultures, >95% pure”, the “inhibition of BASMC culture calcification” value in data set [2] (0.5 ug/ml added on day 7 after start of mineralization, read at day 10) stood at 50%. Further, the “fold inhibition of calcification versus vehicle” value in data set [2] (0.5 ug/ml in medium) was found to be 18 fold. The inhibition of calcification entry in data set [2] (0.5 μg/ml, 10 days) is “approximately 90%”. Further, the “calcium deposition in cell layer” value in data set [2] (0.5 ug/ml, no immunodepletion) came out at 0.33 ± 0.06 µmol/mg; in data set [2] (osteopontin solution immunodepleted with anti-osteopontin antibody (OP-199)), 2.60 ± 0.43 µmol/mg; in data set [2] (osteopontin solution treated with normal goat IgG), 0.49 ± 0.10 µmol/mg. For the same compound, the “inhibition of calcification (in words)” value in data set [2] (5 μg/ml, 10 days) is recorded as “almost completely inhibited”. Further, the “calcification of BASMC (in words)” value in data set [2] (0.05, 0.5 and 5 μg/ml, assessed at 10 days) was “dose-dependently inhibited”. For the same compound, in data set [2] (medium supplemented with increasing calcium, 10 days), the “dependence of inhibitory effect on mineralization on calcium (in words)” value was “calcium dependent”. Further, in the data set with alkaline phosphatase, the “alkaline phosphatase activity of BASMC cultures (in words)” value is given as “did not affect”. Moreover, the “phosphorus concentration of the culture medium (in words)” value in the data set on BASMC is reported as “did not reduce”.
vitronectin [reference compound]: the “inhibition of calcium deposition (in words)” value in data set [2] is listed as “unable to inhibit calcium deposition”.
